Test results published in patent US7601736B2, “Pyridine derivatives, a process for their preparation and a pharmaceutical composition containing the same” (SK Chemicals Co., Ltd., priority 2003, dated 2009).

What was measured:
TNF-α [1] = assay: Cytokine inhibitory activity in animal model (LPS-treated SD rats), plasma TNF-α; type: in vivo, Sprague Dawley (SD) rats
Experimental: Sprague Dawley (SD) rats with body weights of about 180 to about 200 g were fasted (free drinking) and then tested. Test compounds were administered orally at 40 mg/kg and then abdominally administered with LPS 1 μg/mL after 1 hour. After 2 hours, the rats were sacrificed and bloods were collected from abdominal vein, stored at room temperature for about 2 hours, and then centrifuged at 12,000 rpm for about 2 minutes. Thus produced plasma was respectively collected and its TNF-α in each plasma was quantitated using mouse TNF-α ELISA kit based on the amount of recombinant TNF-α in rats. The plate used was coated with anti-rat TNF-α monoclone IgG antibodies. Likewise, for the test of IL-1α, IL-1α in each plasma was quantitated using the above plasma and mouse IL-1α ELISA kit based on the amount of recombinant IL-1α in rats. The plate used was coated with anti-rat IL-1α monoclone IgG antibodies. Further, for the test of IL-6, IL-6 in each plasma was quantitated using the above plasma and mouse IL-6 ELISA kit based on the amount of recombinant IL-6 in rats. Further, for the test of INF-γ, INF-γ in each plasma was quantitated using the above plasma and mouse INF-γ ELISA kit based on the amount of recombinant INF-γ in rats. The plate used was coated with anti-rat INF-γ monoclone IgG antibodies. From the above tests, inhibitory rates on the expression of each cytokine were obtained and they were compared to that of Indomethacin.

TNF-α [2] = assay: Cytokine inhibitory activity in cells: LPS-induced TNF-α in RAW 264.7; type: cell-based, murine; details: for inhibition at 1 µM / inhibition at 10 µM / inhibition at 100 µM / inhibition at 1000 µM: Mus musculus, RAW264.7, read-out: TNF-α Inhibition Rate (%); for inhibition at 1 µM / inhibition at 10 µM / inhibition at 100 µM / inhibition at 1000 µM / TNF-α Inhibition Rate (%): RAW 264.7, LPS 1 μg/mL
Experimental: General reagents used were purchased from Sigma-Aldrich chem. Co. and cytokine inhibitory activities were tested as follows. Mediums and reagents used in cell culture were purchased from GIBCO BRL (USA), and mouse TNF-α ELISA kit was purchased from R&D system (USA). The apparatus used ELISA reader (Spectra max-Plus 384, Molecular Device, USA).
Murine macrophage cell line RAW 264.7 was kindly provided by Korean Tissue Culture Center (KTCC). The cell line was cultured in DMEM medium containing 10% FBS, in a cell culturing device at the condition of 37° C., 5% CO2. First, murine RAW 264.7 was cultured in DMEM medium containing 10% FBS for about 24 hours, and cells were planted 200 μL each in 96 well plates at the concentration of 5×10^5/mL and cultured for about 24 hours. Then, test compounds were treated at various concentrations and then reacted at 37° C. for about 1 hour, wherein 1 μg/mL of lipopolysaccharide (LPS) was added thereto and reacted at 37° C. for about 12 hours. The supernatant was recovered and the amount of murine TNF-α on the medium was quantitated using ELISA kit. Thalidomide was respectively used as a positive and a negative control to compare the activities and the results are shown in the following tables 4a -4c.

Structure (SMILES): COc1nc(-c2ccccc2)cc2c1C(=O)OCC2 [Ex. 79, 8-methoxy-6-phenyl-3,4-dihydro-pyrano[3,4-c]pyridine-1-on]
- inhibition in vivo at 40 mg/kg (TNF-α [1]; Rattus norvegicus, 2 h, SD rats, oral, LPS, 40 mg/kg, read-out: TNF-α Inhibition Rate (Conc.)): 78%
- inhibitory activity on production of TNF-α compared to Indomethacin (TNF-α [1]; rat model, in words): 1.5 or 2 times greater
- inhibition at 1 µM (TNF-α [2]; test conc. 1 μM): 76%
- inhibition at 10 µM (TNF-α [2]; test conc. 10 μM): 8%
- inhibition at 100 µM (TNF-α [2]; test conc. 100 μM): 94%
- inhibition at 1000 µM (TNF-α [2]; test conc. 1 mM): 100%
- inhibitory activity in RAW 264.7 cell line on the production of TNF-α, in words (TNF-α [2]; RAW 264.7, compared to the control compounds): superiorities over to the control compounds

Structure (SMILES): S=C1OCCc2ccncc21 [Ex. 113, 3,4-dihydro-pyrano[3,4-c]pyridine-1-thione]
- inhibition at 1 µM (TNF-α [2]; test conc. 1 μM): 10%
- inhibition at 10 µM (TNF-α [2]; test conc. 10 μM): 19%
- inhibition at 100 µM (TNF-α [2]; test conc. 100 μM): 28%
- inhibition at 1000 µM (TNF-α [2]; test conc. 1 mM): 42%

Structure (SMILES): COc1ccc(CN2CCc3ccncc3C2=O)cc1 [Ex. 115, 2-(4methoxy-benzyl)-3,4-dihydro-2H-[2,7]naphtyridine-1-on]
- TNF-α Inhibition Rate (Conc.) (TNF-α [1]; SD rats, oral, LPS, 40 mg/kg): 43% (40 mg/kg)
- TNF-α Inhibition Rate (%) (TNF-α [2]; test conc. 1 μM): 50%
- TNF-α Inhibition Rate (%) (TNF-α [2]; test conc. 10 μM): 59%
- TNF-α Inhibition Rate (%) (TNF-α [2]; test conc. 100 μM): 65%
- TNF-α Inhibition Rate (%) (TNF-α [2]; test conc. 1 mM): 78%

Structure (SMILES): O=C1NCCc2ccncc21 [Ex. 116, 3,4-dihydro-2H-[2,7]naphtyridine-1-on]
- TNF-α Inhibition Rate (%) (TNF-α [2]; test conc. 10 μM): 10%
- TNF-α Inhibition Rate (%) (TNF-α [2]; test conc. 100 μM): 18%
- TNF-α Inhibition Rate (%) (TNF-α [2]; test conc. 1 mM): 29%

Structure (SMILES): O=C1c2cnccc2CCN1Cc1ccccc1 [Ex. 117, 2-benzyl-3,4-dihydro-2H-[2,7]naphtyridine-1-on]
- TNF-α Inhibition Rate (Conc.) (TNF-α [1]; SD rats, oral, LPS, 40 mg/kg): 69% (40 mg/kg)
- TNF-α Inhibition Rate (%) (TNF-α [2]; test conc. 1 μM): 10%
- TNF-α Inhibition Rate (%) (TNF-α [2]; test conc. 10 μM): 18%
- TNF-α Inhibition Rate (%) (TNF-α [2]; test conc. 100 μM): 29%
- TNF-α Inhibition Rate (%) (TNF-α [2]; test conc. 1 mM): 35%

Structure (SMILES): O=C1OC(c2ccccc2)Cc2ccncc21 (stereo not drawn) [Ex. 120a, 3-phenyl-3,4-dihydro-pyrano[3,4-c]pyridine-1-on]
- inhibition at 1 µM (TNF-α [2]; test conc. 1 μM): 43%
- inhibition at 10 µM (TNF-α [2]; test conc. 10 μM): 54%
- inhibition at 100 µM (TNF-α [2]; test conc. 100 μM): 66%
- inhibition at 1000 µM (TNF-α [2]; test conc. 1 mM): 85%

Structure (SMILES): O=C1NC(c2ccccc2)Cc2ccncc21 (stereo not drawn) [Ex. 120b, 3-phenyl-3,4-dihydro-2H-[2,7]naphtyridine-1-on]
- TNF-α Inhibition Rate (%) (TNF-α [2]; test conc. 1 μM): 26%
- TNF-α Inhibition Rate (%) (TNF-α [2]; test conc. 10 μM): 30%
- TNF-α Inhibition Rate (%) (TNF-α [2]; test conc. 100 μM): 32%
- TNF-α Inhibition Rate (%) (TNF-α [2]; test conc. 1 mM): 42%

Structure (SMILES): O=C1CCC(N2C(=O)c3ccccc3C2=O)C(=O)N1 (stereo not drawn) [Thalidomide, reference compound]
- inhibition at 1 µM (TNF-α [2]; test conc. 1 μM): 8%
- inhibition at 10 µM (TNF-α [2]; test conc. 10 μM): 12%
- inhibition at 100 µM (TNF-α [2]; test conc. 100 μM): 20%
- inhibition at 1000 µM (TNF-α [2]; test conc. 1 mM): 21%
